Results: patent US12595269B2, “Morpholine-like monoamine releasers” (Solvonis Therapeutics Ireland Holdings Limited, priority 2022, dated 2026)

Assay: In vitro intrinsic clearance in rat liver microsomes
Assay type: in vitro ADME
Conditions: pH 7.4, read-out: Intrinsic clearance (μL/min/mg protein) rat
Procedure: Methods and Procedure: The general procedure involves incubating test compounds with liver microsomes and subsequently detecting the compounds to determine intrinsic clearance. Clearance was estimated from the rate of depletion k (min−1), the volume of the incubation V (mL), and the amount of microsomal proteins in the incubation M (mg). Intrinsic clearance is defined by the following equation: Clint k*V/M.
Values for CLint are expressed as μL/min/mg protein. Verapamil and dextromethorphan were used as positive controls for CYP3A4 and CYP2D6 isoforms, respectively, to confirm metabolic activity.
Positive control and compounds for testing were dissolved in an appropriate solvent to obtain a 10 mM stock solution, which was diluted to achieve a final working solution, as detailed in the above table. Stock solutions were usually prepared at 10 mM DMSO, whereas working solutions were made by adding 5 μL 10 mM DMSO+995 μL MeOH. However, this concentration can be varied, e.g., when the test item is not soluble in the selected solvent.
Prior to experimentation, frozen liver microsomes were thawed in a water bath at 37° C. and kept on ice until use. The microsomes were then diluted with 50 mM potassium phosphate buffer pH 7.4 to a protein concentration of 0.56 mg/mL. To prepare test and control items in final incubation conditions, 5 μL of test compound and positive control working solutions were added to 445 μL of microsomes incubation mixture at 0.56 mg/mL and 50 μL of regenerating system.
As it relates to the automated incubation procedure for microsomes incubation, the following procedure was followed: • 1. 150 μL of quenching solution (ACN containing an appropriate Internal Standard, i.e. Rolipram and Diclofenac for positive and negative ion mode, respectively) was manually dispensed or dispensed by using the Hamilton system in each well of 96 deep well 1 mL plates. • 2. 800-1000 μL-aliquots of NADPH regenerating system were pre-warmed at 37° C. for 5 minutes. • 3. 5 μL of 50 μM test items and control were added to 445 μL of the 0.56 mg/mL microsomes solution, and the incubation mixture was pre-warmed in a 96 deep well 2 mL plate (incubation plate) at 37° C. for 5 minutes. • 4. […] Metabolic stability was calculated from the ratio of peak area of the remaining test or control item with internal standard versus time. • 9. […] The integrated peak areas of the test and control items at the selected time points were divided by the respective peak areas of the IS, and the percent of parent remaining was calculated by normalizing the peak area ratio of parent to IS at 0 min. Observed rate constant (kobs) for parent degradation was calculated by determining the slope of the line of the graph of the natural log of percentage parent remaining versus time of incubation. […]

Row | SMILES | microsomal CLint at 0.5 µM [µL/min/mg]
1 | Clc1ccc(C23CNC(CO2)C3)cc1Cl (stereo not shown) [522A, 1-(3,4-dichlorophenyl)-2-oxa-5-azabicyclo[2.2.1]heptane] | 83
2 | CNC(C)Cc1ccc2c(c1)OCO2 (stereo not shown) [MDMA, reference compound] | 171
3 | Clc1ccc([C@]23CN[C@H](CO2)C3)cc1Cl (single isomer, unassigned) [516A] | 167
4 | Clc1ccc([C@@]23CN[C@@H](CO2)C3)cc1Cl (single isomer, unassigned) [518A] | 268
